Source: article PMC12261228 (ACS Pharmacology & Translational Science, 2025)
Read-outs that look alike come from different tables or passages of the source.

Tests used:
[1] = test system: CCRF-CEM; test: MTS cytotoxicity assay, 72 h; format: cell-based; settings: Homo sapiens, CCRF-CEM, 72 h, read-out: IC50 CCRF-CEM, MTS assay, 3-day incubation, mean ± SD of 3 experiments
[2] = test system: CEM-DNR; test: MTS cytotoxicity assay, 72 h; format: cell-based; settings: Homo sapiens, read-out: IC50 CEM-DNR
[3] = test system: K562; test: MTS cytotoxicity assay, 72 h; format: cell-based; settings: Homo sapiens, K562, 72 h, read-out: IC50 K562
[4] = test system: K562-TAX; test: MTS cytotoxicity assay, 72 h; format: cell-based; settings: read-out: IC50 K562-TAX
[5] = test system: HCT116; test: MTS cytotoxicity assay, 72 h; format: cell-based; settings: Homo sapiens, HCT-116, 72 h, read-out: IC50 HCT116
[6] = test system: HCT116p53–/–; test: MTS cytotoxicity assay, 72 h; format: cell-based; settings: read-out: IC50 HCT116p53–/–
[7] = test system: U2OS; test: MTS cytotoxicity assay, 72 h; format: cell-based, human
[8] = test system: MRC-5; test: MTS cytotoxicity assay, 72 h; format: cell-based; settings: Homo sapiens, MRC5, 72 h, read-out: IC50 MRC-5
[9] = test system: BJ; test: MTS cytotoxicity assay, 72 h; format: cell-based; settings: Homo sapiens, read-out: IC50 BJ
[10] = test system: HUVEC; test: MTS cytotoxicity assay, 72 h; format: cell-based; settings: Homo sapiens, 3-day incubation, mean ± SD
[11] = test system: panel of cell lines
[12] = test system: panel of cell lines; test: cells; settings: read-out: IC50 values, cancer cell lines
[13] = test system: CCRF-CEM lymphoblasts; test: FACS analysis of cell cycle, apoptosis, mitosis and polyploidy; settings: for Mitosis: phospho-Histone (Ser10); for Apoptosis: sub-G0/G1 DNA content, % of positive cells
[14] = test system: microtubules in U2OS cells; test: Immunofluorescence of microtubule organization; format: cell-based, human; settings: 10 μM, 15 h
Description: DMSO at appropriate dilution served as control.
Immunofluorescence microscopy on formaldehyde-fixed, Triton X-100 extracted cells (F/Tx) was performed as previously described. Extraction and fixation steps were carried out in a microtubule stabilizing buffer consisting of 0.1 M KMes, 2 mM EGTA, 2 mM MgCl2, 4% polyethylene glycol 6000, pH 6.9. Cells were fixed for 30 min in 3% formaldehyde before extraction for 4 min with 0.5% Triton X-100 at 37 °C. Mouse monoclonal antibody TU-01 (IgG1) directed to α-tubulin , in the form of hybridoma spent culture medium was diluted 1:10. The DyLight 549-conjugated antimouse antibody (Jackson Immunoresearch Laboratories, West Grove, PA, USA) was diluted 1:500. Samples were mounted in MOWIOL 4–88 (Calbiochem, San Diego, CA, USA) supplemented with 4,6-diamidino-2-phenylindole (DAPI; Sigma-Aldrich, St. Louis, MO, USA) and examined with an Olympus AX-70 Provis microscope (Olympus, Hamburg, Germany) equipped with a 60×/1.0 water objective.

[15] = Homo sapiens, U2OS, 72 h, read-out: IC50 U2OS, MTS assay, 3-day incubation, mean ± SD

Compound	IC50 [1] [µM]	IC50 [2] [µM]	IC50 [3] [µM]	IC50 [4] [µM]	IC50 [5] [µM]	IC50 [6] [µM]	IC50 [7, 15] [µM]	IC50 [8] [µM]	IC50 [9] [µM]	IC50 [10] [µM]	RI (resistance index) [11]	SI (selectivity index) [11]	G0/G1 ([13]; 1×IC50, 24 h) [%]	G2/M ([13]; 1×IC50, 24 h) [%]	Polyploid cells ([13]; 1×IC50, 24 h) [%]	S ([13]; 1×IC50, 24 h) [%]	Mitosis ([13]; 1×IC50, 24 h) [%]	Apoptosis ([13]; 1×IC50, 24 h) [%]	G0/G1 ([13]; 5×IC50, 24 h) [%]	Polyploid cells ([13]; 5×IC50, 24 h) [%]	other results
COc1cc2c(c(OC)c1OC)-c1ccc(N(C)CCCCC3=C4C(C)=CC(C)=[N+]4[B-](F)(F)n4c(C)cc(C)c43)c(=O)cc1[C@@H](NC(C)=O)CC2 [CB11]	2.5 ± 0.567	5.49 ± 0.935	1.85 ± 0.204	5.18 ± 0.198	4.93 ± 0.729	5.52 ± 0.762	4.62 ± 1.23	> 50	> 50	5.52 ± 0.29	2.45	>12.87	35.98	30.38	13.64	33.64	4.83	5.26	10.48	24.88	IC50 [12]: 2.5 to 9 µM; G2/M ([13]; 5×IC50, 24 h): 79.29%; S ([13]; 5×IC50, 24 h): 10.23%; Mitosis ([13]; 5×IC50, 24 h): 59.86%; Apoptosis ([13]; 5×IC50, 24 h): 16.42%
COc1cc2c(c(OC)c1OC)-c1ccc(N(C)C(=O)CCC3=C4C(C)=CC(C)=[N+]4[B-](F)(F)n4c(C)cc(C)c43)c(=O)cc1[C@@H](NC(C)=O)CC2 [CB12]	5.54 ± 0.475	36 ± 2.04	4.25 ± 0.89	8.07 ± 0.706	8.09 ± 0.268	8.35 ± 0.549	9.12 ± 0.174	> 50	> 50	8.24 ± 0.77	4.50	>7.07	32.27	26.62	18.91	41.12	9.86	4.12	21.05	23.39	IC50 [12]: 2.5 to 9 µM; G2/M ([13]; 5×IC50, 24 h): 53.56%; S ([13]; 5×IC50, 24 h): 25.39%; Mitosis ([13]; 5×IC50, 24 h): 23.11%; Apoptosis ([13]; 5×IC50, 24 h): 10.47%
COc1cc2c(c(OC)c1OC)-c1ccc(OC)c(=O)cc1[C@@H](n1cc(CCCCCCCCC3=C4C(C)=CC(C)=[N+]4[B-](F)(F)n4c(C)cc(C)c43)nn1)CC2 [CB5]	0.42 ± 0.014	1.39 ± 0.139	0.5 ± 0.122	0.9 ± 0.026	0.64 ± 0.065	0.77 ± 0.063	< 2	> 50	> 50	0.45 ± 0.012	2.49	>74.18	11.02	85.47	24.32	3.51	42.49	9.64	5.27	26.07	IC50 ([7]; read-out: IC50 U2OS, MTS assay, 3-day incubation, mean ± SD): 1.04 ± 0.141 µM; effect on microtubules (in words) [14]: completely disrupted microtubules; S ([13]; 5×IC50, 24 h): 0.77%; Mitosis ([13]; 5×IC50, 24 h): 60.70%; Apoptosis ([13]; 5×IC50, 24 h): 10.96%
